Counter-ions that a name gives are not always drawn.
Biological target: human active recombinant p38α-6His tagged (Homo sapiens, UniProt Q16539)
Test: P38 Alpha Enzyme Assay (AlphaScreen, biotinylated-ATF2 substrate);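 note: 0.5 nM final p38α, reaction started with ATP and run 45 min at 37 °C, phospho-ATF2 read by antibody-based AlphaScreen, background wells quenched with EDTA before ATP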
Format: biochemical
Details: p38 alpha enzyme inhibition; means of replicate determinations; 4 h pre-incubation at 37° C.; SD of assay 0.2-0.3 log units

human active recombinant p38α-6His tagged, sequence (Q16539 whole entry): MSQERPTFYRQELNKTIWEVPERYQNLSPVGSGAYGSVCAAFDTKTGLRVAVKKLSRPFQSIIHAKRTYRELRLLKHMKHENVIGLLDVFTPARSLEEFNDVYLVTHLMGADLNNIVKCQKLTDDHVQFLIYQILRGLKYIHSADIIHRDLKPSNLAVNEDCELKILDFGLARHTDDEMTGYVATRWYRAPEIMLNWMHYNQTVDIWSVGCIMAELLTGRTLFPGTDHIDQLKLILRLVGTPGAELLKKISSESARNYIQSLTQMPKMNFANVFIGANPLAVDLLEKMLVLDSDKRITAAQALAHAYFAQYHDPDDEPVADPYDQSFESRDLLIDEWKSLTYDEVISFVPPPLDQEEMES

Row | SMILES | pIC50
1 | Cc1ccc(C(=O)NC2CC2)cc1-n1ccnc(N[C@@H](c2ccccc2)[C@@H](C)CN2CC3CC2CN3C)c1=O (stereo partly drawn) [Example 196, N-Cyclopropyl-4-methyl-3-[3-[[(1R,2S)-2-methyl-3-(5-methyl-2,5-diazabicyclo[2.2.1]hept-2-yl)-1-phenylpropyl]amino]-2-oxo-1(2H)-pyrazinyl]-benzamide] | 8.9
2 | Cc1ccc(C(=O)NC2CC2)cc1-n1ccnc(NCc2ccccc2-c2ccccc2)c1=O [Example 44, 3-[3-[([1,1′-Biphenyl]-2-ylmethyl)amino]-2-oxo-1(2H)-pyrazinyl]-N-cyclopropyl-4-methyl-benzamide] | 7.6
3 | Cc1ccc(C(=O)NC2CC2)cc1-n1cc(Br)nc(N2CCN(C)CC2c2ccccc2)c1=O (stereo not shown) [Example 120, 3-[5-bromo-3-(4-methyl-2-phenyl-1-piperazinyl)-2-oxo-1(2H)-pyrazinyl]-N-cyclopropyl-4-methyl-benzamide] | 6.4
4 | Cc1ccc(C(=O)NC2CC2)cc1-n1ccnc(-c2ccccc2)c1=O [Example 114, N-Cyclopropyl-4-methyl-3-(2-oxo-3-phenyl-1(2H)-pyrazinyl)-benzamide] | 6.6
5 | Cc1ccc(C(=O)NC2CC2)cc1-n1ccnc(NCc2ccccc2CN2CCN(C)CC2)c1=O [Example 41, N-Cyclopropyl-4-methyl-3-[3-[[[2-[(4-methyl-1-piperazinyl)methyl]phenyl]methyl]amino]-2-oxo-1(2H)-pyrazinyl]-benzamide] | 7
6 | CNCCOc1ccc(F)cc1C1(Nc2nccn(-c3cc(C(=O)NC4CC4)ccc3C)c2=O)CC1 [Example 278, N-Cyclopropyl-3-[3-[[1-[5-fluoro-2-[2-(methylamino)ethoxy]phenyl]cyclopropyl]amino]-2-oxo-1(2H)-pyrazinyl]-4-methyl-benzamide] | 9.9
7 | Cc1ccc(C(=O)NC2CC2)cc1-n1ccnc(NC2(c3ccccc3OCCN(C)C)CC2)c1=O [Example 237, N-Cyclopropyl-3-[3-[[1-[2-[2-(dimethylamino)ethoxy]phenyl]cyclopropyl]amino]-2-oxo-1(2H)-pyrazinyl]-4-methyl-benzamide] | 9.9
8 | CONC(=O)c1ccc(C)c(-n2ccnc(C3CCCC3)c2=O)c1 [Example 127, 3-(3-cyclopentyl-2-oxo-1(2H)-pyrazinyl)-N-methoxy-4-methyl-benzamide] | 7.3
9 | CNCCOc1ccccc1C1(Nc2nccn(-c3cc(C(=O)NC4CC4)cc(F)c3C)c2=O)CC1 [Example 259, N-Cyclopropyl-3-fluoro-4-methyl-5-[3-[[1-[2-[2-(methylamino)ethoxy]phenyl]cyclopropyl]amino]-2-oxo-1(2H)-pyrazinyl]-benzamide] | 10
10 | Cc1ccc(C(=O)NC2CC2)cc1-n1ccnc(N[C@@H](c2ccccc2)[C@@H](C)CNC2CC2)c1=O [Example 183, N-Cyclopropyl-3-[3-[[(1R,2S)-3-(cyclopropylamino)-2-methyl-1-phenylpropyl]amino]-2-oxo-1(2H)-pyrazinyl]-4-methyl-benzamide] | 9
11 | Cc1ccc(C(=O)NC2CC2)cc1-n1ccnc(NCC(c2ccccc2)N2CCCC2)c1=O (stereo not shown) [Example 63, N-Cyclopropyl-4-methyl-3-[2-oxo-3-[[2-phenyl-2-(1-pyrrolidinyl)ethyl]amino]-1(2H)-pyrazinyl]-benzamide] | 6.3
12 | CSc1ccccc1CNc1nccn(-c2cc(C(=O)NC3CC3)ccc2C)c1=O [Example 128, N-Cyclopropyl-4-methyl-3-[3-[[[2-(methylthio)phenyl]methyl]amino]-2-oxo-1(2H)-pyrazinyl]-benzamide] | 8.2
13 | COC[C@H]1CCCN1C[C@H](C)[C@@H](Nc1nccn(-c2cc(C(=O)NC3CC3)ccc2C)c1=O)c1ccccc1 [Example 147, N-Cyclopropyl-3-[3-[[(1R,2S)-3-[(2R)-2-(methoxymethyl)-1-pyrrolidinyl]-2-methyl-1-phenylpropyl]amino]-2-oxo-1(2H)-pyrazinyl]-4-methyl-benzamide] | 9
14 | Cc1ccc(C(=O)NC2CC2)cc1-n1ccnc(NCc2ccccc2F)c1=O [Example 1, N-Cyclopropyl-3-[3-(2-fluoro-benzylamino)-2-oxo-2H-pyrazin-1-yl]-4-methyl-benzamide] | 7.4
15 | CCNC[C@@H](O)COc1ccccc1C1(Nc2nccn(-c3cc(C(=O)NC4CC4)ccc3C)c2=O)CC1 [Example 300, N-Cyclopropyl-3-[3-{[1-(2-{[(2R)-3-(ethylamino)-2-hydroxypropyl]oxy}phenyl)cyclopropyl]amino}-2-oxopyrazin-1(2H)-yl]-4-methylbenzamide] | 10.3
16 | Cc1ccc(C(=O)NC2CC2)cc1-n1ccnc(NC2(c3ccccc3OCCN3CCNCC3)CC2)c1=O [Example 243, N-Cyclopropyl-4-methyl-3-[2-oxo-3-[[1-[2-[2-(1-piperazinyl)ethoxy]phenyl]cyclopropyl]amino]-1(2H)-pyrazinyl]-benzamide] | 9.4
17 | Cc1ccccc1[C@H](Nc1nccn(-c2cc(C(=O)NC3CC3)ccc2C)c1=O)[C@@H](C)CN1CCCC1 [Example 275, N-Cyclopropyl-3-[3-[[(1R,2S)-1-(2-methylphenyl)-2-methyl-3-(1-pyrrolidinyl)propyl]amino]-2-oxo-1(2H)-pyrazinyl]-4-methyl-benzamide] | 8.6
18 | Cc1ccc(C(=O)NC2CC2)cc1-n1ccnc(NC(CN2CCCC2)c2ccccc2)c1=O (stereo not shown) [Example 34, N-Cyclopropyl-4-methyl-3-[2-oxo-3-[[1-phenyl-2-(1-pyrrolidinyl)ethyl]amino]-1(2H)-pyrazinyl]-benzamide] | 6.4
19 | CNCCOc1ccccc1C1CCCN1c1nccn(-c2cc(C(=O)NC3CC3)ccc2C)c1=O (stereo not shown) [Example 327, N-Cyclopropyl-4-methyl-3-[3-(2-{2-[2-(methylamino)ethoxy]phenyl}pyrrolidin-1-yl)-2-oxopyrazin-1(2H)-yl]benzamide Trifluoroacetate salt] | 8
20 | Cc1ccc(C(=O)NC2CC2)cc1-n1ccnc(N2CCC(c3ccccc3)C2)c1=O (stereo not shown) [Example 54, N-Cyclopropyl-4-methyl-3-[2-oxo-3-(3-phenyl-1-pyrrolidinyl)-1(2H)-pyrazinyl]-benzamide] | 6.5
21 | CONC(=O)c1ccc(C)c(-n2ccnc(N[C@@H](c3cccc4ccccc34)[C@@H](C)CN3CCOCC3)c2=O)c1 [Example 161, N-Methoxy-4-methyl-3-[3-[[(1R,2S)-2-methyl-3-(4-morpholinyl)-1-(1-naphthalenyl)propyl]amino]-2-oxo-1(2H)-pyrazinyl]-benzamide] | 9.2

The next lines start with the values.

Row | pIC50 | SMILES
22 | 10 | Cc1ccc(C(=O)NC2CC2)cc1-n1ccnc(NC2(c3ccccc3OC[C@@H](O)CNCCO)CC2)c1=O [Example 302, N-Cyclopropyl-3-[3-({1-[2-({(2S)-2-hydroxy-3-[(2-hydroxyethyl)amino]propyl}oxy)phenyl]cyclopropyl}amino)-2-oxopyrazin-1(2H)-yl]-4-methylbenzamide]
23 | 10.3 | Cc1c(F)cc(C(=O)NC2CC2)cc1-n1ccnc(NC(C)(C)c2ccccc2OCCNCC(C)(C)O)c1=O [Example 257, N-Cyclopropyl-3-fluoro-5-[3-[[1-[2-[2-[(2-hydroxy-2-methylpropyl)amino]ethoxy]phenyl]-1-methylethyl]amino]-2-oxo-1(2H)-pyrazinyl]-4-methyl-benzamide]
24 | 8.3 | CCNC(=O)c1ccc(C)c(-n2ccnc(NC(C)(C)c3ccccc3OCCNC)c2=O)c1 [Example 220, N-Ethyl-4-methyl-3-[3-[[1-methyl-1-[2-[2-(methylamino)ethoxy]phenyl]ethyl]amino]-2-oxo-1(2H)-pyrazinyl]-benzamide]
25 | 10.5 | Cc1c(F)cc(C(=O)NC2CC2)cc1-n1ccnc(NC(C)(C)c2ccccc2OCCNC[C@@H](C)O)c1=O [Example 256, N-Cyclopropyl-3-fluoro-5-[3-[[1-[2-[2-[[(2R)-2-hydroxypropyl]amino]ethoxy]phenyl]-1-methylethyl]amino]-2-oxo-1(2H)-pyrazinyl]-4-methyl-benzamide]
26 | 8.5 | CCc1ccc(C(=O)NC2CC2)cc1-n1ccnc(NC(C)(C)c2ccccc2OCCNCCO)c1=O [Example 291, N-Cyclopropyl-4-ethyl-3-[3-{[1-(2-{2-[(2-hydroxyethyl)amino]ethoxy}phenyl)-1-methylethyl]amino}-2-oxopyrazin-1(2H)-yl]benzamide]
27 | 9.5 | CNCCCc1ccccc1C(C)(C)Nc1nccn(-c2cc(C(=O)NC3CC3)cc(F)c2C)c1=O [Example 323, N-Cyclopropyl-3-fluoro-4-methyl-5-{3-[(1-methyl-1-{2-[3-(methylamino)propyl]phenyl}ethyl)amino]-2-oxopyrazin-1(2H)-yl}benzamide]
28 | 9.6 | Cc1ccc(C(=O)NC2CC2)cc1-n1ccnc(NC(C)(C)c2ccccc2OCCNC(C)C)c1=O [Example 212, N-Cyclopropyl-4-methyl-3-[3-[[1-methyl-1-[2-[2-[(1-methylethyl)amino]ethoxy]phenyl]ethyl]amino]-2-oxo-1(2H)-pyrazinyl]-benzamide]
29 | 9.8 | Cc1c(F)cc(C(=O)NC2CC2)cc1-n1ccnc(NC(C)(C)c2ccccc2OCCNCC(=O)O)c1=O [Example 312, N-(2-{2-[1-({4-[5-(Cyclopropylcarbamoyl)-3-fluoro-2-methylphenyl]-3-oxo-3,4-dihydropyrazin-2-yl}amino)-1-methylethyl]phenoxy}ethyl)glycine]
30 | 9.1 | Cc1ccc(C(=O)NC2CC2)cc1-n1ccnc(NC(C)(C)c2ccccc2OCCN2CCCCC2)c1=O [Example 201, N-Cyclopropyl-4-methyl-3-[3-[[1-methyl-1-[2-[2-(1-piperidinyl)ethoxy]phenyl]ethyl]amino]-2-oxo-1(2H)-pyrazinyl]-benzamide]
31 | 10 | Cc1ccc(C(=O)NC2CC2)cc1-n1ccnc(NC2(c3ccccc3OC[C@H](O)CNCCO)CC2)c1=O [Example 299, N-Cyclopropyl-3-[3-({1-[2-({(2R)-2-hydroxy-3-[(2-hydroxyethyl)amino]propyl}oxy)phenyl]cyclopropyl}amino)-2-oxopyrazin-1(2H)-yl]-4-methylbenzamide]

— patent US20120214822A1 (ASTRAZENECA AB, priority 2007, published 2012)
